The values that follow come from patent publication US10640506B2, “Cyclobutyl substituted pyrrolopyridine and pyrrolopyrimidines derivatives as JAK inhibitors” (Incyte Corporation, priority 2010, dated 2020).

The target in assay [1] is human JAK1 (a.a. 837-1142) (Homo sapiens, UniProt P23458). Briefly: In vitro JAK kinase assay (HTRF, phosphorylation of biotinylated peptide), JAK1. The format is biochemical. The conditions noted are these: Table F; 1 mM ATP. The gist of the method: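 His-tagged human JAK1 catalytic domain (a.a. 837-1142), baculovirus/insect-cell expressed, phosphorylates a biotinylated peptide for 1 h at room temperature. Reaction stopped with EDTA; product detected by HTRF (SA-APC, Eu-Py20, 40 min binding). IC50 reported as ranges.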
Chain of human JAK1 (a.a. 837-1142) (P23458 849-1154): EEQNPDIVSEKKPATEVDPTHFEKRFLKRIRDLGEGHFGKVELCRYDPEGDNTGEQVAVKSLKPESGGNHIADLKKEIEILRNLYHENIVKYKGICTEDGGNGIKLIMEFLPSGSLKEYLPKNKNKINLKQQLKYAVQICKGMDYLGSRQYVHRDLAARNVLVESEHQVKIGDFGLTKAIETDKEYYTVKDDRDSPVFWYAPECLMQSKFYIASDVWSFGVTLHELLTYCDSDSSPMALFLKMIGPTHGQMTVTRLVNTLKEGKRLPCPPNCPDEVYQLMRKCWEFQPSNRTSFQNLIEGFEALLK

In assay [2] the target is T1, JAK2 (a.a. 828-1132) (Homo sapiens, UniProt O60674).
T1 construct: JAK2 (a.a. 828-1132); His tag (N)
T1 sequence (O60674 828-1132): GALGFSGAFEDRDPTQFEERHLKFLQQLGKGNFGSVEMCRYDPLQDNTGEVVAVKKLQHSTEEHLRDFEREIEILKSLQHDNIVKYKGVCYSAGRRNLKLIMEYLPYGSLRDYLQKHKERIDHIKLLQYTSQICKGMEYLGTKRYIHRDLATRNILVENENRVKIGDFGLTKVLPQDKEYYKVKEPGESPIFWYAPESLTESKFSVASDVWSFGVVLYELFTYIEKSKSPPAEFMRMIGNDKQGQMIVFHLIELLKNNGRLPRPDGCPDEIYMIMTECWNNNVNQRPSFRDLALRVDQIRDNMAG
In words: In vitro JAK kinase assay (HTRF, phosphorylation of biotinylated peptide), JAK2. The format is biochemical. The settings on record: Table F; 1 mM ATP. The gist of the method:
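His-tagged catalytic domains of human JAK1 (a.a. 837-1142) and JAK2 (a.a. 828-1132), baculovirus-expressed, phosphorylate a biotinylated peptide for 1 hour at room temperature. Stopped with EDTA; detected by HTRF using SA-APC and Eu-Py20 antibody after 40 min binding; values binned as ranges.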

By IC50 is commonly meant the concentration needed to halve the response being measured. A high value points to a need for much substance. For `CNC1(c2cc(C(=O)N3CCN([C@H]4C[C@](CC#N)(n5cc(-c6ncnc7[nH]ccc67)cn5)C4)CC3)nc(C(F)(F)F)n2)CCC1` [Example 70, {trans-3-(4-{[6-[1-(methylamino)cyclobutyl]-2-(trifluoromethyl)pyrimidin-4-yl]carbonyl}piperazin-1-yl)-1-[4-(7H-pyrrolo[2,3-d]pyrimidin-4-yl)-1H-pyrazol-1-yl]cyclobutyl}acetonitrile], the IC50 in assay [1] and in assay [2] was less than 0.01 µM throughout.

Regarding `N#CC[C@]1(n2cc(-c3ncnc4[nH]ccc34)cn2)C[C@H](N2CCN(C(=O)c3cc(C#N)cc(C(F)(F)F)n3)CC2)C1` [Example 71, 2-[(4-{trans-3-(cyanomethyl)-3-[4-(7H-pyrrolo[2,3-d]pyrimidin-4-yl)-1H-pyrazol-1-yl]cyclobutyl}piperazin-1-yl)carbonyl]-6-(trifluoromethyl)isonicotinonitrile], the IC50 was less than 0.01 µM in assay [1] and 0.025 to 0.1 µM in assay [2].

Turning to `N#CC[C@]1(n2cc(-c3ncnc4[nH]ccc34)cn2)C[C@H](N2CCN(C(=O)c3cc(C4(O)CCC4)nc(C(F)(F)F)n3)CC2)C1` [Example 72, {trans-3-(4-{[6-(1-hydroxycyclobutyl)-2-(trifluoromethyl)pyrimidin-4-yl]carbonyl}piperazin-1-yl)-1-[4-(7H-pyrrolo[2,3-d]pyrimidin-4-yl)-1H-pyrazol-1-yl]cyclobutyl}acetonitrile], the IC50 in assay [1] was less than 0.01 µM; in assay [2], 0.01 to 0.025 µM.

Turning to `N#CC[C@]1(n2cc(-c3ncnc4[nH]ccc34)cn2)C[C@H](N2CCN(C(=O)c3cc(C4=NCCN4)cc(C(F)(F)F)n3)CC2)C1` [Example 73, {trans-3-(4-{[4-(4,5-dihydro-1H-imidazol-2-yl)-6-(trifluoromethyl)pyridin-2-yl]carbonyl}piperazin-1-yl)-1-[4-(7H-pyrrolo[2,3-d]pyrimidin-4-yl)-1H-pyrazol-1-yl]cyclobutyl}acetonitrile], the half-maximal inhibitory concentration (IC50) in assay [1] was less than 0.01 µM; in assay [2], 0.01 to 0.025 µM.

Take `CN(C)Cc1cc(C(=O)N2CCN([C@H]3C[C@](CC#N)(n4cc(-c5ncnc6[nH]ccc56)cn4)C3)CC2)cc(C(F)F)c1` [Example 74, {trans-3-(4-{3-(difluoromethyl)-5-[(dimethylamino)methyl]benzoyl}piperazin-1-yl)-1-[4-(7H-pyrrolo[2,3-d]pyrimidin-4-yl)-1H-pyrazol-1-yl]cyclobutyl}acetonitrile]: the results for the IC50 in assay [1] and in assay [2] were less than 0.01 µM and 0.01 to 0.025 µM, respectively.

`CC(C)(O)c1cc(C(=O)N2CCN([C@H]3C[C@](CC#N)(n4cc(-c5ncnc6[nH]ccc56)cn4)C3)CC2)nc(C(F)(F)F)c1` [Example 75, {trans-3-(4-{[4-(1-hydroxy-1-methylethyl)-6-(trifluoromethyl)pyridin-2-yl]carbonyl}piperazin-1-yl)-1-[4-(7H-pyrrolo[2,3-d]pyrimidin-4-yl)-1H-pyrazol-1-yl]cyclobutyl}acetonitrile]: the IC50 in assay [1] was less than 0.01 µM; in assay [2], 0.01 to 0.025 µM.

Regarding `COCc1cc(C(=O)N2CCN([C@H]3C[C@](CC#N)(n4cc(-c5ncnc6[nH]ccc56)cn4)C3)CC2)nc(C(F)(F)F)c1` [Example 76, {trans-3-(4-{[4-(methoxymethyl)-6-(trifluoromethyl)pyridin-2-yl]carbonyl}piperazin-1-yl)-1-[4-(7H-pyrrolo[2,3-d]pyrimidin-4-yl)-1H-pyrazol-1-yl]cyclobutyl}acetonitrile], the half-maximal inhibitory concentration (IC50) in assay [1] is less than 0.01 µM; in assay [2], 0.01 to 0.025 µM.

With `CC(C)(O)c1cc(C(=O)N2CCN([C@H]3C[C@](CC#N)(n4cc(-c5ccnc6[nH]ccc56)cn4)C3)CC2)nc(C(F)(F)F)n1` [Example 78, {trans-3-(4-{[6-(1-hydroxy-1-methylethyl)-2-(trifluoromethyl)pyrimidin-4-yl]carbonyl}piperazin-1-yl)-1-[4-(1H-pyrrolo[2,3-b]pyridin-4-yl)-1H-pyrazol-1-yl]cyclobutyl}acetonitrile], the IC50 in assay [1] was less than 0.01 µM; in assay [2], 0.025 to 0.1 µM.

Consider `CC(C)N(C)C(=O)N1CCN([C@H]2C[C@](CC#N)(n3cc(-c4ncnc5[nH]ccc45)cn3)C2)CC1` [Example 79, 4-{trans-3-(cyanomethyl)-3-[4-(7H-pyrrolo[2,3-d]pyrimidin-4-yl)-1H-pyrazol-1-yl]cyclobutyl}-N-isopropyl-N-methylpiperazine-1-carboxamide], for which the half-maximal inhibitory concentration (IC50) was 0.025 to 0.1 µM in assay [1] and greater than 0.1 µM in assay [2].

`CCCN(C)C(=O)N1CCN([C@H]2C[C@](CC#N)(n3cc(-c4ncnc5[nH]ccc45)cn3)C2)CC1` [Example 80, 4-{trans-3-(cyanomethyl)-3-[4-(7H-pyrrolo[2,3-d]pyrimidin-4-yl)-1H-pyrazol-1-yl]cyclobutyl}-N-methyl-N-propylpiperazine-1-carboxamide]: the 50% inhibitory concentration (IC50) in assay [1] was less than 0.01 µM; in assay [2] it was 0.025 to 0.1 µM.

For `CCNC(=O)N1CCN([C@H]2C[C@](CC#N)(n3cc(-c4ncnc5[nH]ccc45)cn3)C2)CC1` [Example 81, 4-{trans-3-(cyanomethyl)-3-[4-(7H-pyrrolo[2,3-d]pyrimidin-4-yl)-1H-pyrazol-1-yl]cyclobutyl}-N-ethylpiperazine-1-carboxamide], the IC50 in assay [1] was less than 0.01 µM; in assay [2] it was 0.025 to 0.1 µM.

Regarding `CN(C)CCCN(C)C(=O)N1CCN([C@H]2C[C@](CC#N)(n3cc(-c4ncnc5[nH]ccc45)cn3)C2)CC1` [Example 82, 4-{trans-3-(cyanomethyl)-3-[4-(7H-pyrrolo[2,3-d]pyrimidin-4-yl)-1H-pyrazol-1-yl]cyclobutyl}-N-[3-(dimethylamino)propyl]-N-methylpiperazine-1-carboxamide], the results for the IC50 in assay [1] and in assay [2] were 0.01 to 0.025 µM and greater than 0.1 µM, respectively.

Take `CN(C(=O)N1CCN([C@H]2C[C@](CC#N)(n3cc(-c4ncnc5[nH]ccc45)cn3)C2)CC1)C1CC1` [Example 83, 4-{trans-3-(cyanomethyl)-3-[4-(7H-pyrrolo[2,3-d]pyrimidin-4-yl)-1H-pyrazol-1-yl]cyclobutyl}-N-cyclopropyl-N-methylpiperazine-1-carboxamide]: the IC50 was less than 0.01 µM in assay [1] and 0.025 to 0.1 µM in assay [2].

With `CN(CC(F)(F)F)C(=O)N1CCN([C@H]2C[C@](CC#N)(n3cc(-c4ncnc5[nH]ccc45)cn3)C2)CC1` [Example 84, 4-{trans-3-(cyanomethyl)-3-[4-(7H-pyrrolo[2,3-d]pyrimidin-4-yl)-1H-pyrazol-1-yl]cyclobutyl}-N-methyl-N-(2,2,2-trifluoroethyl)piperazine-1-carboxamide], the values for the IC50 in assay [1] and in assay [2] were 0.025 to 0.1 µM and greater than 0.1 µM, respectively.

On to `CC(C)NC(=O)N1CCN([C@H]2C[C@](CC#N)(n3cc(-c4ncnc5[nH]ccc45)cn3)C2)CC1` [Example 85, 4-{trans-3-(cyanomethyl)-3-[4-(7H-pyrrolo[2,3-d]pyrimidin-4-yl)-1H-pyrazol-1-yl]cyclobutyl}-N-isopropylpiperazine-1-carboxamide], for which the IC50 in assay [1] was less than 0.01 µM; in assay [2] it was 0.025 to 0.1 µM.

As to `N#CC[C@]1(n2cc(-c3ncnc4[nH]ccc34)cn2)C[C@H](N2CCN(C(=O)N[C@H]3CC[C@H](O)CC3)CC2)C1` [Example 86, 4-{trans-3-(cyanomethyl)-3-[4-(7H-pyrrolo[2,3-d]pyrimidin-4-yl)-1H-pyrazol-1-yl]cyclobutyl}-N-(trans-4-hydroxycyclohexyl)piperazine-1-carboxamide], the 50% inhibitory concentration (IC50) is 0.01 to 0.025 µM in assay [1] and 0.025 to 0.1 µM in assay [2].
